# Source: US9255100B2 (BAYER INTELLECTUAL PROPERTY GMBH, priority 2010, dated 2016)
# Target: T1, N-terminally GST-tagged human full length recombinant Mps-1 kinase (Homo sapiens, UniProt P33981)
# T1 construct: N-terminally GST-tagged human full length recombinant Mps-1 kinase; purchased Invitrogen, Karslruhe, Germany PV4071
# T1 sequence (P33981 1-857): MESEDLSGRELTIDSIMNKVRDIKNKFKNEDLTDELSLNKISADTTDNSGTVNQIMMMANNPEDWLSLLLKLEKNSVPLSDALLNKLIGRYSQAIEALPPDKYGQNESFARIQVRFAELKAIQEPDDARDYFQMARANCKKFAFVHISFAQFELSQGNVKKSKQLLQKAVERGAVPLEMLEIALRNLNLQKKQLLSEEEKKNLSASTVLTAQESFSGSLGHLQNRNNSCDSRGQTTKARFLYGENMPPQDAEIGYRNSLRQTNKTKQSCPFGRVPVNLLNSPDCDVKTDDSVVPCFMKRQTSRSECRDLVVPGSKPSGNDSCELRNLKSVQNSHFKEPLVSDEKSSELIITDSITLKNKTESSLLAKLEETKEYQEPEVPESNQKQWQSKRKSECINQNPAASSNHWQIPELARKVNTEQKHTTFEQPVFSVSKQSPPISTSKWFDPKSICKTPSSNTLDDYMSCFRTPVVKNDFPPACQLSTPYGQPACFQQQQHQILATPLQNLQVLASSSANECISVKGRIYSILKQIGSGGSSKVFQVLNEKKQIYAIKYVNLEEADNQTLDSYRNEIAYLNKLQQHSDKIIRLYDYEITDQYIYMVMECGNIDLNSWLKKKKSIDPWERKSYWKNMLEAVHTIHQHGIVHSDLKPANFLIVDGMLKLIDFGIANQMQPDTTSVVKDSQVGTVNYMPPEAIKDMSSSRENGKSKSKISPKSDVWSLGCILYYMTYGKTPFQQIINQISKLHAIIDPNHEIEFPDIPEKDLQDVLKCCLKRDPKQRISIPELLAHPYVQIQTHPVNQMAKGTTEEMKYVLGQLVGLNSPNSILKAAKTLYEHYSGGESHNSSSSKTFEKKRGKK
# Experiment: Mps-1 kinase assay (TR-FRET)
# Type: biochemical
# Conditions: Mps1 IC50 [nM], 10 μM ATP, 1 μM peptide substrate, 60 min at 22° C.
# How it was run: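 GST-Mps-1 (full length, N-term tag) ~1 nM final, linear-range adjusted per lot; biotinylated peptide substrate. Detection: Eu-anti-pSer/Thr donor → SA-XLent acceptor TR-FRET, 1 h, 22° C. Inhibition of kinase activity.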
row,Structure (SMILES),IC50 [nM]
1,"Cc1cc(-c2cnc3c(NCC(C)(C)O)cc(N4CCCCC4)nn23)ccc1C(=O)NC1CC1 [Example 337, N-cyclopropyl-4-{8-[(2-hydroxy-2-methylpropyl)amino]-6-(piperidin-1-yl)imidazo[1,2-b]pyridazin-3-yl}-2-methyl-benzamide]",3.9
2,"Cc1cc(-c2cnc3c(NCC4CNC4)cc(-c4ccccc4CO)nn23)ccc1C(=O)NC1CC1 [Example 338, 4-{8-[(azetidin-3-ylmethyl)amino]-6-[2-(hydroxymethyl)phenyl]imidazo[1,2-b]pyridazin-3-yl}-N-cyclo-propyl-2-methylbenzamide]",83.9
3,"Cc1cc(-c2cnc3c(NCC4CN(C(=O)OC(C)(C)C)C4)cc(-c4ccccc4CO)nn23)ccc1C(=O)NC1CC1 [Example 339, tert-butyl 3-[({3-[4-(cyclopropylcarbamoyl)-3-methylphenyl]-6-[2-(hydroxy-methyl)phenyl]imidazo[1,2-b]pyridazin-8-yl}amino)methyl]azetidine-1-carboxylate]",95.9
4,"Cc1cc(-c2cnc3c(NCCC(C)(C)O)cc(-c4ccccc4CO)nn23)ccc1C(=O)NC1CC1 [Example 341, N-cyclopropyl-4-{8-[(3-hydroxy-3-methylbutyl)amino]-6-[2-(hydroxy-methyl)phenyl]imidazo[1,2-b]pyridazin-3-yl}-2-methylbenzamide]",10.6
5,"Cc1cc(-c2cnc3c(NCC4CC(=O)N(C)C4)cc(-c4ccccc4CO)nn23)ccc1C(=O)NC1CC1 (stereo not drawn) [Example 344, N-cyclopropyl-4-(6-[2-(hydroxy-methyl)phenyl]-8-{[(1-methyl-5-oxo-pyrrolidin-3-yl)methyl]amino}imidazo[1,2-b]pyridazin-3-yl)-2-methyl-benzamide]",23

# These reach a lower IC50. Values come first.
row,IC50 [nM],Structure (SMILES)
1,3.3,"Cc1cc(-c2cnc3c(NCC4CCC(C)(O)CC4)cc(-c4ccccc4CO)nn23)ccc1C(=O)NC1CC1 (stereo not drawn) [Example 340, N-cyclopropyl-4-(8-{[(4-hydroxy-4-methylcyclohexyl)methyl]amino}-6-[2-(hydroxymethyl)phenyl]imidazo[1,2-b]pyridazin-3-yl)-2-methylbenzamide]"
2,1.6,"Cc1cc(-c2cnc3c(NCC4CCOCC4)cc(-c4ccccc4CO)nn23)ccc1C(=O)NC1CC1 [Example 346, N-cyclopropyl-4-{6-[2-(hydroxy-methyl)phenyl]-8-[(tetrahydro-2H-pyran-4-ylmethyl)amino]imidazo[1,2-b]pyridazin-3-yl}-2-methyl-benzamide]"
3,1.5,"Cc1cc(-c2cnc3c(NCC(C)(C)O)cc(Nc4ccc(Cl)cc4F)nn23)ccc1C(=O)NC1CC1 [Example 348, 4-{6-[(4-chloro-2-fluorophenyl)amino]-8-[(2-hydroxy-2-methylpropyl)amino]imidazo[1,2-b]pyridazin-3-yl}-N-cyclopropyl-2-methylbenzamide]"
4,1,"Cc1cc(-c2cnc3c(NCC(C)(C)O)cc(Nc4cc(F)cc(F)c4)nn23)ccc1C(=O)NC1CC1 [Example 351, N-cyclopropyl-4-{6-[(3,5-difluorophenyl)amino]-8-[(2-hydroxy-2-methylpropyl)amino]imidazo[1,2-b]pyridazin-3-yl}-2-methylbenzamide]"
5,0.4,"COc1ccc(C)c(Nc2cc(NCC(C)(C)O)c3ncc(-c4ccc(C(=O)NC5CC5)c(C)c4)n3n2)c1 [Example 349, N-cyclopropyl-4-{8-[(2-hydroxy-2-methylpropyl)amino]-6-[(5-methoxy-2-methylphenyl)amino]imidazo[1,2-b]pyridazin-3-yl}-2-methylbenzamide]"
6,0.2,"Cc1cc(-c2cnc3c(NCC(C)(C)O)cc(Nc4cccc(F)c4F)nn23)ccc1C(=O)NC1CC1 [Example 352, N-cyclopropyl-4-{6-[(2,3-difluorophenyl)amino]-8-[(2-hydroxy-2-methylpropyl)amino]imidazo[1,2-b]pyridazin-3-yl}-2-methylbenzamide]"
7,0.1,"Cc1cc(-c2cnc3c(NCCC#N)cc(Oc4cccc(F)c4)nn23)ccc1C(=O)NC1CC1 [Example 347, 4-{8-[(2-cyanoethyl)amino]-6-(3-fluorophenoxy)imidazo[1,2-b]pyridazin-3-yl}-N-cyclopropyl-2-methylbenzamide]"
